The values that follow come from patent US10434098B2, “Deuterated dehydrophenylahistin compounds and preparation method thereof and use thereof in preparation of anti-tumor drugs” (MARINE BIOMEDICAL RESEARCH INSTITUTE OF QINGDAO CO., LTD., priority 2015, dated 2019).

SMILES strings stand for the structures.

Format in all cases: cell-based
In experiment [1] the test system is human acute T cell leukemia cell Jurkat. As to the kind of experiment: MTT inhibition ratio on tumor cells Jurkat. As to conditions: for Inhibition ratio (%): 72 h, MTT; for activity of inhibiting tumors compared with positive control: summary of Table 2. On the procedure: (§1) The inhibition ratio of the selected compounds on tumor cells A431 and Jurkat is measured via the MTT analytical method.
(§2) 1) Cell strains: human skin cancer cell strain A431 and human acute T cell leukemia cell Jurkat. The ells grow in an RPMI-1640 culture medium and high glucose DMEM (Gibco BRL, Rockville, Md., USA)+10% fetal calf serum (containing 2 mM L-glutamine, penicillin and streptomycin), and putting them into an incubator at 37° C. (5% CO2-95% air) for growing, carrying out digestive passage with 0.25% trypsin, and changing the solution every 1 to 2 days.
(§3) 2) The dissolution and dilution of compounds: according to the molecular weight and mass of the compounds, preparing into a 10 mM of mother solution respectively using DMSO (SIGMA), and diluting to the required concentration of 100 μM (DMSO content≤3%o) with the RPMI-1640 culture medium. Storing the diluted drugs at temperature of −20° C.
(§4) 1) Cell inoculation: Taking cells in the logarithmic phase, after digestion with pancreatin, the cells disperse into single cells, counting, adjusting cell suspension to […], inoculating in the 96-well plates with 180 μL in each well, and making the amount of the inoculated cells is 4.0×10^3 cells/well. After cell attachment, adding the fresh culture media containing compounds with different concentrations respectively, making the concentrations of the compounds reach 12.5 nM and 6.25 nM, setting 3 duplicate wells for each concentration, operating in absence of light, and adjusting the content of DMSO in each concentration to be consistent.
(§5) 2) After drug incubation for 72 h, adding 20 μL of MTT (3-[4,5-dimethylthiazol-2-yl]-2,5-diphenyltetrazolium bromide, Sigma; 5 mg/mL) into each well, incubating in a incubator for 4 h, removing supernate, adding 150 μL of DMSO into each well for dissolving, and measuring absorbancy at 570 nm using the microplate reader. According to the formula: Inhibition ratio=[(A570 control well−A570 administration well)/A570 control well]×100%, to calculate the inhibition ratio of each concentration, and the result is shown in the table 2.

In experiment [2] the test system is human skin cancer cell strain A431. Briefly: MTT inhibition ratio on tumor cells A431. As to conditions: for Inhibition ratio (%): 72 h, MTT; for activity of inhibiting tumors compared with positive control: A431, summary of Table 2. As to the method: as §1, §2, §3, §4, §5
The subject of experiment [3] is intracellular microtubulin of human epidermal carcinoma A431. Briefly: High content imaging analysis of microtubulin (immunofluorescent staining, Alexa 488). The note with it: 12.5 nM, 24 h; for Alexa488 stained fluorescence intensity of microtubulin in the cells: versus blank and DMSO control, FIG. 3/4; for microtubulin distribution and cellular morphology / Alexa488 fluorescence intensity compared with the positive control Plinabulin: A431 cells; for microtubulin distribution and cellular morphology: FIG. 3; for Alexa488 fluorescence intensity compared with the positive control Plinabulin: FIG. 4. On the procedure: Plinabulin (dehydro-phenylahistin) is used as positive control, and concentration is set as 12.5 nM. According to the data in earlier-stage, 3 kinds of samples are selected, i.e., compounds 1, 2 and 3. The concentrations of all samples are set as 12.5 nM. According to the experiment method for specific immunofluorescent staining (Alexa 488), the effect of the compounds 1, 2 and 3 on the expression of intracellular microtubulin of human epidermal carcinoma A431 is detected via the high content imaging analysis system. 1) Taking cells in the logarithmic phase, after digestion with pancreatin, the cells disperse into single cells counting, inoculating in the 96-well plates at 1.2×10^4 cells/well, putting at temperature of 37° C., culturing in a 5% CO2 incubator for 24 h until cell attachment. 2) After cell attachment, for experiment group, adding the fresh culture medium containing compounds with different concentrations respectively into each well, making the concentrations of the compounds reach 12.5 nM, and setting 3 duplicate wells for each concentration. In the control group, adding a solvent DMSO with equimultiple diluting, selecting Plinabulin (dehydro-phenylahistin) as a positive drug, setting 3 duplicate wells in each group, and culturing in an incubator at temperature of 37° C. under 5% CO2 saturated humidity for 24 h. 3) Absorbing the culture medium after 24 h, and washing with PBS for 3 times; fixing with 4% paraformaldehyde for 30 min, absorbing paraformaldehyde, and washing with PBS for 3 times; sealing with 0.3% Triton X-100 and 5% BSA for 30 min, absorbing, and washing with PBS for 3 times; adding Tubulin antibody (mouse antibody, diluting in a ratio of 1:200), and staying overnight at temperature of 4° C.; absorbing, and washing with PBS for 3 times; adding DyLight 488-goat anti mouse IgG (diluting in a ratio of 1:1000), and placing at room temperature for 90 min 4) Photographing analysis of high content imaging analysis system

As for `[2H]/C(c1ccccc1)=c1/[nH]c(=O)/c(=C(\[2H])c2nc[nH]c2C(C)(C)C)[nH]c1=O` [Compound 2, (3Z,6Z)-3-(phenylmethylene-d)-6-((5-(tert-butyl)-1H-imidazol-4-yl)methylene-d)piperazine-2,5-dione], in experiment [1] (concentration 12.5 nM), the “Inhibition ratio (%)” value came to 79.65%. The “activity of inhibiting tumors compared with positive control” value in experiment [1] is “close to that of the positive control Plinabulin”. The “Inhibition ratio (%)” value in experiment [2] (A431, concentration 12.5 nM) is on record as 94.11%. The “activity of inhibiting tumors compared with positive control” value in experiment [2] is on record as “close to that of the positive control Plinabulin”. Besides, in experiment [3], the “Alexa488 stained fluorescence intensity of microtubulin in the cells” value (“Alexa488 stained fluorescence intensity” below) is on record as “obviously enhanced”; the “microtubulin distribution and cellular morphology” value is “aggregation in microtubulin and a significant change in cellular morphology”; the “Alexa488 fluorescence intensity compared with the positive control Plinabulin” value was “higher than the positive control in the effect”.

In the case of `[2H]/C(c1nc[nH]c1C(C)(C)C)=c1/[nH]c(=O)/c(=C(\[2H])c2c([2H])c([2H])c([2H])c([2H])c2[2H])[nH]c1=O` [Compound 7, (3Z,6Z)-3-(phenyl-2,3,4,5,6-d5)-methylene-d-6-((5-(tert-butyl)-1H-imidazol-4-yl)methylene-d)piperazine-2,5-dione], the “Inhibition ratio (%)” value in experiment [1] (concentration 12.5 nM) was 64.49%; in experiment [2] (A431, concentration 12.5 nM), 87.73%. Besides, the “activity of inhibiting tumors compared with positive control” value in experiment [1] and in experiment [2] was “close to that of the positive control Plinabulin” in each case.

For the compound `[2H]/C(c1ccccc1)=c1/[nH]c(=O)/c(=C/c2nc[nH]c2C(C)(C)C)[nH]c1=O` [Compound 4, (3Z,6Z)-3-(phenylmethylene-d)-6-((5-(tert-butyl)-1H-imidazol-4-yl)methylene)piperazine-2,5-dione], the “Inhibition ratio (%)” value is listed as 16.04% in experiment [1] (concentration 6.25 nM); 82.33% in experiment [1] (concentration 12.5 nM); 53.90% in experiment [2] (A431, concentration 6.25 nM); 91.85% in experiment [2] (A431, concentration 12.5 nM). Besides, the “activity of inhibiting tumors compared with positive control” value in experiment [1] and in experiment [2] was “close to that of the positive control Plinabulin” in each case.

For the compound `[2H]c1c([2H])c([2H])c(/C=c2\[nH]c(=O)/c(=C/c3nc[nH]c3C(C)(C)C)[nH]c2=O)c([2H])c1[2H]` [Compound 5, (3Z,6Z)-3-(phenyl-2,3,4,5,6-d5)-methylene-6-((5-(tert-butyl)-1H-imidazol-4-yl)methylene)piperazine-2,5-dione], the “Inhibition ratio (%)” value turned out to be 16.86% in experiment [1] (concentration 12.5 nM) and 66.00% in experiment [2] (A431, concentration 12.5 nM). For the same compound, the “activity of inhibiting tumors compared with positive control” value in experiment [1] and in experiment [2] was “close to that of the positive control Plinabulin” throughout.

Regarding `[2H]/C(c1nc[nH]c1C(C)(C)C)=c1/[nH]c(=O)/c(=C/c2c([2H])c([2H])c([2H])c([2H])c2[2H])[nH]c1=O` [Compound 1, (3Z,6Z)-3-(phenyl-2,3,4,5,6-d5)-methylene-6-((5-(tert-butyl)-1H-imidazol-4-yl)methylene-d)piperazine-2,5-dione], the “Inhibition ratio (%)” value worked out at 86.46% in experiment [1] (concentration 12.5 nM) and 95.04% in experiment [2] (A431, concentration 12.5 nM). The “activity of inhibiting tumors compared with positive control” value in experiment [1] and in experiment [2] was “close to that of the positive control Plinabulin” throughout. Also, the “Alexa488 stained fluorescence intensity” value in experiment [3] is “obviously enhanced”. The “microtubulin distribution and cellular morphology” value in experiment [3] was “aggregation in microtubulin and a significant change in cellular morphology”. Besides, in experiment [3], the “Alexa488 fluorescence intensity compared with the positive control Plinabulin” value was “higher than the positive control in the effect”.

On to `[2H]/C(c1c([2H])c([2H])c([2H])c([2H])c1[2H])=c1/[nH]c(=O)/c(=C/c2nc[nH]c2C(C)(C)C)[nH]c1=O` [Compound 6, (3Z,6Z)-3-(phenyl-2,3,4,5,6-d5)-methylene-d-6-((5-(tert-butyl)-1H-imidazol-4-yl)methylene)piperazine-2,5-dione], for which the “Inhibition ratio (%)” value in experiment [1] (concentration 6.25 nM) stood at 7.70%; in experiment [1] (concentration 12.5 nM), 73.40%; in experiment [2] (A431, concentration 6.25 nM), 16.17%; in experiment [2] (A431, concentration 12.5 nM), 79.28%. Besides, the “activity of inhibiting tumors compared with positive control” value in experiment [1] and in experiment [2] was “close to that of the positive control Plinabulin” throughout.

Consider `CC(C)(C)c1[nH]cnc1/C=c1\[nH]c(=O)/c(=C/c2ccccc2)[nH]c1=O` [Plinabulin, reference compound], for which the “Inhibition ratio (%)” value is 13.75% in experiment [1] (concentration 6.25 nM); 79.69% in experiment [1] (concentration 12.5 nM); 63.25% in experiment [2] (A431, concentration 6.25 nM); 91.81% in experiment [2] (A431, concentration 12.5 nM). The “Alexa488 stained fluorescence intensity” value in experiment [3] is listed as “obviously enhanced”. Also, the “microtubulin distribution and cellular morphology” value in experiment [3] was “aggregation in microtubulin and a significant change in cellular morphology”.

For the compound `[2H]/C(c1nc[nH]c1C(C)(C)C)=c1/[nH]c(=O)/c(=C/c2ccccc2)[nH]c1=O` [Compound 3, (3Z,6Z)-3-(phenylmethylene)-6-((5-(tert-butyl)-1H-imidazol-4-yl)methylene-d)piperazine-2,5-dione], the “Inhibition ratio (%)” value in experiment [1] (concentration 12.5 nM) turned out to be 86.09%; in experiment [2] (A431, concentration 12.5 nM), 93.79%. Further, the “activity of inhibiting tumors compared with positive control” value in experiment [1] and in experiment [2] was “close to that of the positive control Plinabulin” in each case. In experiment [3], the “Alexa488 stained fluorescence intensity” value is listed as “obviously enhanced”. For the same compound, the “microtubulin distribution and cellular morphology” value in experiment [3] is “aggregation in microtubulin and a significant change in cellular morphology”. In experiment [3], the “Alexa488 fluorescence intensity compared with the positive control Plinabulin” value is given as “higher than the positive control in the effect”.
